In series [1] the test system is S. aureus biofilms. Description: Bacterial biofilm disruption (pre-formed biofilm). It is filed as cell-based. The following applies: for reduction of cell viability in pre-existing biofilms: 24 h.
Series [2] concerns E. coli (MTCC 443). Description: Minimum Inhibitory Concentration, micro-dilution broth. It is filed as cell-based. To be noted: 24 h, 37° C.
Series [3] relates to vancomycin resistant Enterococcus faecium (VRE) (ATCC 51559). The series is described as above. It is filed as cell-based. The following applies: 24 h, 37° C.
Series [4] relates to Enterococcus faecium (ATCC 19634). The series is described as above. It is filed as cell-based.
Series [5] in a line: Antibacterial efficacy (MIC) after incubation in 50% human plasma. The following applies: for MIC / activity: up to 24 h incubation in 50% human plasma.
Series [6] deals with S. aureus. As to the kind of experiment: Resistance study, serial passage at MIC/2. It is filed as cell-based. The following applies: 20 passages.
Series [7] deals with RAW (macrophage) cell line. As to the kind of experiment: Cytotoxicity, MTT assay. On the technique in general: Formazan colour is commonly taken as a measure of viable cells.
For series [8], the system named is Ebola virus. It is filed as cell-based.
The test system of series [9] is Ebola virus (strain ME718). It is filed as cell-based.
In series [10] the test system is HeLa cell line. As to the kind of experiment: Cytotoxicity, MTT assay.
Series [11] relates to Ebola virus. It is filed as cell-based. The source holds these as a separate data set.
In series [12] the test system is Ebola virus. It is filed as cell-based. The source holds these as a separate data set.
For series [13], the system named is Ebola virus (strain ME718). It is filed as cell-based. The source holds these as a separate data set.
Series [14] relates to S. aureus (MTCC 737). Description: Minimum Inhibitory Concentration, micro-dilution broth. It is filed as cell-based, Staphylococcus aureus. The following applies: 24 h, 37° C.
For series [15], the system named is stationary-phase S. aureus. Description: Time-kill kinetics against stationary phase bacteria. The following applies: within 1 h of exposure, 50 μg/mL. It is filed as cell-based.
Series [16] relates to E. coli. As to the kind of experiment: Resistance study, serial passage at MIC/2. It is filed as cell-based. To be noted: 30 passages.
Series [17] has as its system human Red Blood Cells. As to the kind of experiment: Haemolytic activity. The following applies: human RBCs, 1 h at 37° C.
Series [18] concerns MRSA (ATCC 33591). As to the kind of experiment: Minimum Inhibitory Concentration, micro-dilution broth. The following applies: 24 h, 37° C. It is filed as cell-based, methicillin-resistant S. aureus. (In general: In broth dilution the organism is exposed to a series of concentrations in liquid medium.)
The test system of series [19] is Klebsiella pneumoniae (ATCC 700603). The description is as above. It is filed as cell-based. The following applies: 24 h, 37° C.
Setting [20] is: 24 h, 37° C., read-out: Minimum Inhibitory Concentration E. faceium.

Consider eleven compounds from patent publication US20170144969A1, “ANT[…], METHOD FOR PRODUCTION AND USES THEREOF” (priority 2014, published 2017).

Values joined by “and” are separate entries in the source; they are usually repeats but may differ in a detail not shown here. Equal entries are not always repeated. Where two headings read alike, the source gives them in different places.

With `CN[C@H](CC(C)C)C(=O)N[C@H]1C(=O)N[C@@H](CC(N)=O)C(=O)N[C@H]2C(=O)N[C@H]3C(=O)N[C@H](C(=O)N[C@H](C(=O)O)c4cc(O)cc(O)c4-c4cc3ccc4O)[C@H](O)c3ccc(c(Cl)c3)Oc3cc2cc(c3O[C@@H]2O[C@H](CO)[C@@H](O)[C@H](O)[C@H]2O[C@H]2C[C@](C)(N)[C@H](O)[C@H](C)O2)Oc2ccc(cc2Cl)[C@H]1O` [vancomycin, reference compound], the “reduction of cell viability in pre-existing biofilms” value (“reduction of cell viability” for short) in [1] (64×MIC) was “none of the antibiotics showed significant reduction”.

As for `CC[C@H]1OC(=O)[C@H](C)[C@@H](O[C@H]2C[C@@](C)(OC)[C@@H](O)[C@H](C)O2)[C@H](C)[C@@H](O[C@@H]2O[C@H](C)C[C@H](N(C)C)[C@H]2O)[C@](C)(O)C[C@@H](C)C(=O)[C@H](C)[C@@H](O)[C@]1(C)O` [erythromycin, reference compound], the “reduction of cell viability” value in series [1] (64×MIC) was “none of the antibiotics showed significant reduction”.

For the compound `CCCCCCCCCCCC(=O)N(CCCNC(=O)[C@H](N)Cc1ccccc1)CCCNC(=O)[C@H](N)Cc1ccccc1` [Compound 6, N,N-bis-[{3-(^DPhe)amino}propyl]dodecanamide bis(trifluoroacetate)], the MIC was 12 µM in series [2] (Escherichia coli, MTCC443); 2.9 µM in series [3]; 3.3 µM in series [4] (setting [20]); 2 to 5 µM in series [4] (Enterococcus faecium, ATCC19634, 24 h, read-out: Minimum Inhibitory Concentration E. faceium, 24 h, 37° C.). Moreover, in series [5] (human plasma), the stability in plasma entry is recorded as “stable in plasma”. For the same compound, the MIC / activity entry in [5] was “did not show any loss of activity”.

For `CC(=O)NC[C@H]1CN(c2ccc(N3CCOCC3)c(F)c2)C(=O)O1` [linezolid, reference compound], the “reduction of cell viability” value in series [1] (64×MIC) was “none of the antibiotics showed significant reduction”.

Consider `CCn1cc(C(=O)O)c(=O)c2cc(F)c(N3CCNCC3)cc21` [norfloxacin, reference compound], for which, in series [1] (64×MIC), the “reduction of cell viability” value was “none of the antibiotics showed significant reduction”. For the same compound, in [6], the “fold increase in the MIC” value is listed as “around 800 fold”.

In the case of `CCCCCCCCCCCCCC(=O)N(CCCNC(=O)[C@H](N)CCCCN)CCCNC(=O)[C@H](N)CCCCN.O=C(O)C(F)(F)F.O=C(O)C(F)(F)F` [Compound 16, N,N-bis-[{3-(^DLys)amino}propyl]tetradecanamide bis(trifluoroacetate)], the “EC50 (50% cells viability)” value in series [7] (MTT) and in series [10] (MTT) was over 70 µg/mL in each case. Besides, the toxicity result in series [7] (at its MIC) and in [10] (at its MIC) was “did not show any toxicity” each time. Moreover, the “rank of Ct value among 20 compounds” value in series [8] and in series [11] was “one of the top two Ct values” throughout. Also, the results for the MIC in series [2], in [3] and in series [14] were 5.4 µM, 2.8 µM and 5.7 µM, respectively. Besides, the “Ct value Ave” value in series [9] is 34.3 and 32.9; in series [13], 33.65 and 35.29. The “Drug - no drug Ct change” value is 7.02 and 5.64 in series [9]; 3.76 and 5.40 in series [13]. The “Ct value, replicate wells 1-3” value in [12] is 25.96 and 27.13 and 26.42 and 26.03 and 24.81 and 25.73 and 26.99 and 26.76 and 26.30 and 26.31 and 26.49 and 26.53 and 26.04 and 26.63 and 16.70 and 18.76 and 16.93 and 24.42 and 24.33 and 24.32 and 21.29 and 20.72 and 23.10 and 19.95 and 20.87 and 20.22 and 17.82 and 20.49 and 19.45. For the same compound, in series [12], the “amount of viral genome present” value is listed as “reduced the amount of viral genome present”. For the same compound, the “reductions in cell viability” value in series [15] is “more than 3 Log CFU/mL”. In addition, the “fold increase in the MIC” value in [16] and in series [6] was “no change in the MIC” throughout. The figures for the “reduction of cell viability” value in series [1] (4×MIC), in series [1] (10×MIC) and in series [1] (at its MIC concentration) were 5 Log (CFU/mL), 6 Log (CFU/mL) and “more than 4 Log CFU/mL”, respectively. Further, the “biofilm eradication, confocal microscopy” value in series [1] (10×MIC) is “significant biofilm eradication”. In addition, in series [1] (10×MIC), the “pre-formed biofilm mass, crystal violet staining” value was “enormous reduction in pre-formed biofilm mass”.

Consider colistin [reference compound], for which, in series [16], the “fold increase in the MIC” value is listed as about 250 fold.

In series [17] (Table 6), `CCCCCCCCCCCCCC(=O)N(CCCNC(=O)[C@@H](N)[C@@H](C)CC)CCCNC(=O)[C@@H](N)[C@@H](C)CC.O=C(O)C(F)(F)F.O=C(O)C(F)(F)F` [Compound 52, N,N-bis-[{3-(^LIle)amido}propyl]tetradecanamide bis(trifluoroacetate)] yielded an HC50 of 64 µM. Moreover, the “Minimum Inhibitory Concentration MRSA” value in [18] was 2.9 µM. Further, the “Minimum Inhibitory Concentration K. pneumonie” value in [19] turned out to be 300 µM. The MIC in [2] was 5 µM; in [3], 2.6 µM; in series [4] (setting [20]), 4 µM; in series [14], 3 µM.

In [17] (Table 3), `CCCCCCCCCCCC(=O)N(CCCNC(=O)[C@@H](N)Cc1ccccc1)CCCNC(=O)[C@@H](N)Cc1ccccc1.O=C(O)C(F)(F)F.O=C(O)C(F)(F)F` [Compound 2, N,N-bis-[{3-(^LPhe)amino}propyl]dodecanamide bis(trifluoroacetate)] displayed an HC50 of 205. For the same compound, the “Minimum Inhibitory Concentration MRSA” value in [18] is 4 µM. In [19], the “Minimum Inhibitory Concentration K. pneumonie” value is 9.7 µM. Besides, the MIC in series [2] was 12 µM; in series [3], 2.7 µM; in series [5] (after 2 h incubation with 50% plasma), 10.7 µM; in series [5] (after 4 h incubation with 50% plasma), 22 µM; in series [5] (before incubation with 50% human plasma) it was 5.4 µM. The MIC / activity entry in [5] was “remained same”.

`CCCCCCCCCCCCCC(=O)N(CCCNC(=O)[C@@H](N)CCCCN)CCCNC(=O)[C@@H](N)CCCCN.O=C(O)C(F)(F)F.O=C(O)C(F)(F)F` [Compound 11, N,N-bis-[{3-(^LLys)amino}propyl]tetradecanamide bis(trifluoroacetate)] displayed an HC50 in series [17] (Table 3) of 588. Also, the “Minimum Inhibitory Concentration MRSA” value in [18] turned out to be 14 µM. Moreover, in series [19], the “Minimum Inhibitory Concentration K. pneumonie” value was determined as 9.3 µM. The MIC stood at 5.9 µM in series [2], 1.5 µM in [3], 2 µM in [4] (setting [20]) and 7.8 µM in series [14].

In series [17] (Table 6), `CCCCCCCCCCCCCC(=O)N(CCCNC(=O)[C@@H](N)C(C)C)CCCNC(=O)[C@@H](N)C(C)C.O=C(O)C(F)(F)F.O=C(O)C(F)(F)F` [Compound 49, N,N-bis-[{3-(^LVal)amido}propyl]tetradecanamide bis(trifluoroacetate)] registered an HC50 of 134 µM. Besides, the “Minimum Inhibitory Concentration MRSA” value in series [18] amounted to 3.4 µM. In series [19], the “Minimum Inhibitory Concentration K. pneumonie” value came to 7.3 µM. The MIC in series [2] was determined as 7 µM; in series [3], 4 µM; in series [4] (setting [20]) it was 3.6 µM; in series [14], 4 µM.
